{"source": "patent US7868019B2", "about": "“Dermatitis treating agent” (Mitsubishi Tanabe Pharma Corporation, priority 2005, dated 2011)", "key": {"Contact Dermatitis Model": {"tested_on": "Contact Dermatitis Model", "assay": "Contact dermatitis model (oxazolone sensitization and challenge, ear swelling)", "type": "in vivo, BALB/c male mice", "settings": "BALB/c mice, oxazolone-sensitized; topical challenge on right ear at Day 7 with 0.5% oxazolone containing 1% (w/v) test compound; ear thickness 24 hours after challenge vs control", "procedure": "(1) Effects of Test Compounds in Contact Dermatitis Model (Method) BALB/c male mice (BALB/c AnNCrlCrlj, 5-weeks old, acclimating term: one week, body weight: 20 to 30 g, one group: 4 to 6 mice, available from CHARLES RIVER LABORATORIES JAPAN, INC.) were sensitized by epicutaneous application of 100 μL 0.5% (w/v) oxazolone solution (Solvent: acetone) on the shaved abdomen (Day 0). At the 7th day (Day 7) after sensitization, mice were challenged on both sides of right ears by topical application of 20 μL (10 μL for each side) 0.5% (w/v) oxazolone solution containing 1% (w/v) of respective test compounds (Solvent: acetone or an equal amount mixture of acetone/ethanol). Ear thickness was measured before and 24 hours after challenge by using a thickness gauge. In the control group, sensitized animals were challenged with 20 μL 0.5% (w/v) oxazolone solution containing no test compound (Solvent: acetone) on right ears. Effects of the respective test compounds were expressed as ear swelling inhibitory rate (%) given by the following formula. Ear swelling inhibitory rate (%)=[1−(mean ear swelling of group treated with test compound/mean ear swelling of control group)]×100 Note) Ear swelling=Ear thickness 24 hours after challenge at Day 7−Ear thickness before challenge at Day 7 (2) Effects of Test Compounds on Dermatitis Models Induced by Repeated Topical Application of Hapten (Method)"}, "[1]": {"tested_on": "Dermatitis Models Induced by Repeated Topical Application of Hapten", "assay": "Dermatitis model induced by repeated topical application of hapten (oxazolone, ear swelling)", "type": "in vivo, BALB/c male mice", "settings": "BALB/c mice; repeated topical challenge (Day 0, 2, 4, 7, 9) with 0.5% oxazolone containing 1% (w/v) test compound; ear thickness 24 hours after final challenge at Day 9 vs control", "procedure": "Effects of the respective test compounds were expressed as ear swelling inhibitory rate (%) given by the following formula. Ear swelling inhibitory rate (%)=[1−(mean ear swelling of group treated with test compound/mean ear swelling of control group)]×100 Note) Ear swelling=Ear thickness 24 hours after challenge at Day 7−Ear thickness before challenge at Day 7 (2) Effects of Test Compounds on Dermatitis Models Induced by Repeated Topical Application of Hapten (Method) […], BALE/c male mice (BALB/c AnNCrlCrlj, 5-weeks old, acclimating term: one week, body weight: 20 to 30 g, one group: 4 to 6 mice, available from CHARLES RIVER LABORATORIES JAPAN, INC.) were sensitized on both sides of right ears by a topical application of 20 μL (10 μL for each side) 0.5% (w/v) oxazolone solution (Solvent: acetone)(Day−7). At the respective points of the 7th day (Day 0), 9th day (Day 2), 11th day (Day 4), 14th day (Day 7) and 16th day (Day 9) after sensitization, mice were challenged on the both sides of right ears by topical application of 20 μL (10 μL for each side) 0.5% (w/v) oxazolone solution containing 1% (w/v) of the respective test compounds (Solvent: acetone or an equal amount mixture of acetone/ethanol). Ear thickness was measured before challenge of the test compound solution or suspension by using a thickness gauge. At the final day (Day 9), ear thickness was measured also 24 hours after challenge. In control group, sensitized animals were challenged with 20 μL 0.5% (w/v) oxazolone solution containing no test compound (Solvent: acetone) on right ears. Effects of the respective test compounds were expressed as ear swelling inhibitory rate (%) given by following formula. Ear swelling inhibitory rate (%)=[1−(mean ear swelling of group treated with test compound/mean ear swelling of control group)]×100 Note) Ear swelling=(Thickness of ear 24 hours after final challenge at Day 9)−(Thickness of ear before sensitization at Day−7)"}}}
{"compound": "1-[2-[4-(dimethylaminophenyl)phthalazin-1(2H)-one-2-yl]-pyridin-4-yl]-2,3-bis(hydroxymethyl)-6,7-dimethoxy-naphthalene [(9)]", "values": [{"measurement": "Ear swelling inhibitory rate (%) Contact dermatitis model", "setting": "Contact Dermatitis Model", "result": 52.0, "unit": "%"}, {"measurement": "Ear swelling inhibitory rate (%) Dermatitis model induced by repeated application of Hapten", "setting": "[1]", "result": 60.0, "unit": "%"}]}
{"compound": "COc1cc2cc(CO)c(CO)c(-c3ccnc(-n4c(=O)cc(NCCCNC5CCCCC5)c5ccccc54)c3)c2cc1OC", "note": "[(8), 1-[2-[1,2-dihydro-4-[3-(cyclohexylamino)propylamino]-2-oxoquinolin-1-yl]pyridin-4-yl]-2,3-bis(hydroxymethyl)-6,7-dimethoxynaphthalene]", "values": [{"measurement": "Ear swelling inhibitory rate (%) Contact dermatitis model", "setting": "Contact Dermatitis Model", "result": 75.0, "unit": "%"}, {"measurement": "Ear swelling inhibitory rate (%) Dermatitis model induced by repeated application of Hapten", "setting": "[1]", "result": 37.0, "unit": "%"}]}
{"compound": "(3S)-1-[2-[4-(dimethylaminophenyl)phthalazin-1(2H)-one-2-yl]pyridin-4-yl]-3,4-dihydro-3-hydroxymethyl-6,7-dimethoxy-isoquinoline [(11)]", "values": [{"measurement": "Ear swelling inhibitory rate (%) Contact dermatitis model", "setting": "Contact Dermatitis Model", "result": 69.0, "unit": "%"}, {"measurement": "Ear swelling inhibitory rate (%) Dermatitis model induced by repeated application of Hapten", "setting": "[1]", "result": 51.0, "unit": "%"}]}
{"compound": "COc1cc2cc(CO)c(CO)c(-c3ccnc(-n4nc(-c5cccnc5)c5cc(OC)c(OC)cc5c4=O)c3)c2cc1OC", "note": "[(10), 1-[2-[6,7-dimethoxy-4-(3-pyridyl)phthalazin-1(2H)-one-2-yl]pyridin-4-yl]-2,3-bis(hydroxymethyl)-6,7-dimethoxy-naphthalene]", "values": [{"measurement": "Ear swelling inhibitory rate (%) Contact dermatitis model", "setting": "Contact Dermatitis Model", "result": 66.0, "unit": "%"}]}
